B1: Thermotoga maritima FtsH (TmFtsH) H423Y mutant, full length (enzyme, UniProt Q9WZ49 1-610, looked up)
chain: MNRSNIWNLLFTILIIVTLFWLARFFYVENSPVSKLSYTSFVQMVEDERSVVSEVVIRDDGVLRVYTKDGRVYEVDAPWAVNDSQLIEKLVSKGIKVSGERSGSSSFWINVLGTLIPTILFIVVWLFIMRSLSGRNNQAFTFTKSRATMYKPSGNKRVTFKDVGGAEEAIEELKEVVEFLKDPSKFNRIGARMPKGILLVGPPGTGKTLLARAVAGEANVPFFHISGSDFVELFVGVGAARVRDLFAQAKAHAPCIVFIDEIDAVGRHRGAGLGGGHDEREQTLNQLLVEMDGFDSKEGIIVMAATNRPDILDPALLRPGRFDKKIVVDPPDMLGRKKILEIHTRNKPLAEDVNLEIIAKRTPGFVGADLENLVNEAALLAAREGRDKITMKDFEEAIDRVIAGPARKSKLISPKEKRIIAYYEAGHAVVSTVVPNGEPVHRISIIPRGYKALGYTLHLPEEDKYLVSRNELLDKLTALLGGRAAEEVVFGDVTSGAANDIERATEIARNMVCQLGMSEELGPLAWGKEEQEVFLGKEITRLRNYSEEVASKIDEEVKKIVTNCYERAKEIIRKYRKQLDNIVEILLEKETIEGDELRRILSEEFEKVVE
notes: FtsH (Filamentation Temperature Sensitive Protein H) of Thermotoga maritima, full-length cDNA in the pET24-derived pMSCG-7 plasmid, with the H423Y mutation; 610 residues are named in the comparison with YME1; The vector probably adds an N-terminal His6 tag with a TEV site (surmised), and no cleavage is described; The atomic model 7TDO covers only the ATPase and protease domains (2484 residues in …)

Assays:
[1] = biological target: T1, TmFtsH (FtsH from Thermotoga maritima), full length (Thermotoga maritima, UniProt Q9WZ49, H423Y); test: cryo-EM structure ([…] A); assay type: binding; details: six ADP per hexamer, one in each ATPase domain; endogenous co-purified ADP, none added; MSP1D1 nanodiscs, pH 7.6; C6 symmetry
T1 construct: full length, His-tag purification (HisTrap), E. coli BL21(DE3) pLysS membranes, LDAO, reconstituted in MSP1D1 nanodiscs with soybean polar lipids; homohexamer; only ATPase and protease domains modelled (2484 residues per hexamer)

[2] = biological target: the molecule itself; test: cryo-EM structure; TmFtsH H423Y in MSP1D1 nanodiscs (soybean polar lipids), diluted in 20 mM HEPES pH 7.6, 100 mM NaCl, 0.05% CHAPS; no ADP or ATP added; C6 reconstruction at 3.15 Å (C1: 3.4 Å) of the ATPase and protease domains; full-length reconstruction at 7.9 Å without symmetry

Row | Molecule | cryo-EM structure (3.15 A) [1] | stoichiometry N [2]
1 | Nc1ncnc2c1ncn2[C@@H]1O[C@H](COP(=O)(O)OP(=O)(O)O)[C@@H](O)[C@H]1O [ADP] | ADP bound endogenously to TmFtsH and survived the co-purification and reconstitution processes | 
2 | B1 |  | 6
